Source: patent EP0256909B1, “N,N-bis-(4-fluorophenyl) carbamoyl acetohydroxamic acid and pharmaceutical composition containing it” (priority 1986, dated 1988)

Columns and labels:
[1] = test system: rat; experiment: Interaction with amphetamine; format: in vivo; conditions: comparison section, no dose given
[2] = test system: souris; experiment: Interaction with reserpine; format: in vivo; conditions: 64 mg/kg, comparison section
Method: Quatre heures après l'injection intrapéritonéale de 2,5 mg/kg de réserpine, des lots de 6 souris reçoivent le CRL 41131.

[3] = test system: souris; experiment: Interaction with oxotremorine; format: in vivo; conditions: mouse, oxotremorine 0,5 mg/kg i.p.
Method: Le CRL 41131 est administré à des lots de 6 souris 30 min avant l'injection intrapéritonéale de 0,5 mg/kg d'oxotrémorine.

[4] = test system: souris; experiment: Electroshock test; format: in vivo; conditions: comparison section, no dose given
[5] = test system: souris; experiment: Intergroup aggressiveness; format: in vivo; conditions: 32 et 256 mg/kg, comparison section
Method: Après avoir séjourné pendant 3 semaines dans chacune des moitiés d'une cage séparées par une cloison opaque, des groupes de 3 souris reçoivent le CRL 41131. Trente minutes plus tard, les deux groupes d'une même cage sont réunis par retrait de la cloison et on note le nombre de combats qui surviennent en 10 min.

[6] = test system: souris; experiment: Interaction with barbital; format: in vivo; conditions: comparison section
Method: Trente minutes après l'administration de CRL 41131, des lots de 10 souris reçoivent une injection intrapéritonéale de barbital (220 mg/kg).

[7] = in vivo; conditions: mouse, in vivo; for LD50 at 24 h: dose létale 50% (DL50), 24 h after administration
Method: Le CRL 41131, en suspension dans une solution de gomme arabique à 5%, a été administré par voie intrapéritonéale sous un volume de 20 ml/kg chez la souris (mâle, NMRI, Evic Ceba) et de 5 ml/kg chez le rat (mâle, CD1, Sprague Dawley, Charles River).
Aussitôt après l'administration de CRL 41131, les souris groupées par lots de 10 sont placées dans des boîtes en Plexiglass (20 x 10 x 10 cm).
On note le nombre d'animaux morts, toutes les heures pendant 4 h et après 24, 48 et 72 h.
La toxicité du CRL 41131 est déterminée dans les mêmes conditions sur des lots de souris placées à raison d'une par boîte.

[8] = results given in the earlier document; cited from earlier work

Question: For `O=C(CC(=O)N(c1ccccc1)c1ccccc1)NO` [CRL 40385, reference compound], which “test à l'amphétamine: stéréotypies du rat” value [1] is on record?
Answer: Its value is “prolonge les stéréotypies du rat”.

Question: And the “test à la réserpine: hypothermie” value [2]?
Answer: The value was “s'oppose modérément”.

Question: What about the “action hypothermisante de l'oxotrémorine (température)” value [3] of the same compound?
Answer: The value was “antagonise l'hyperthermie”.

Question: What about the “intensité des tremblements provoqués par l'oxotrémorine” value [3] of the same compound?
Answer: The value was “diminue l'intensité des tremblements”.

Question: And the “test à l'électrochoc” value [4]?
Answer: The value was “s'oppose aux convulsions”.

Question: What about the “agressivité intergroupe des souris” value [5] of the same compound?
Answer: Its value is “augmentation”.

Question: And the “sommeil (association au barbital)” value ([6]; 512 mg/kg)?
Answer: Its value is “il ne le fait plus”.

Question: What about the “sommeil (association au barbital)” value ([6]; doses below 512 mg/kg) of the same compound?
Answer: Its value is “diminue d'abord le sommeil”.

Question: What about the LD50 at 24 h ([7]; ip, grouped mice) of the same compound?
Answer: Its LD50 at 24 h is about 1050 mg/kg.

Question: What about the LD50 at 24 h ([7]; ip, isolated mice) of the same compound?
Answer: Its LD50 at 24 h is about 1500 mg/kg.

Question: What about the “effet mis en évidence par un ensemble de tests” value [8] of the same compound?
Answer: The value was “effet anti-fatigue”.

Question: Which selectivity ratio ([7]; ip, rapport, LD50 ratio isolated/grouped mice (formula not readable), same conditions, 24 h) does the source give for `CC(Cc1ccccc1)N(C)Cc1ccccc1` (stereo not shown) [benzophétamine, reference compound] here?
Answer: The selectivity ratio was about 4.

Question: For `CCN(CC)C(C)C(=O)c1ccccc1` (stereo not shown) [diéthylpropion, reference compound], which selectivity ratio at 24 h [7] is on record?
Answer: The selectivity ratio at 24 h was about 8.
